Measured values published in patent publication US9182350B2, “Naphthalene-based two-photon fluorescent probes, preparation method and use thereof” (DALIAN UNIVERSITY OF TECHNOLOGY, priority 2012, dated 2015).
≈ marks a conversion by molar mass, not a printed value. Values belong to the compound of their own block, whether it stands above or below them.

What was measured:
HEK 293 cells = test: Two-photon fluorescence labeling of non-cancer cells; assay type: cell-based; details: 4 μL probe-DMSO solution (4 μM), 60 min, 5% CO2, 37° C., PBS wash
Protocol: (§1) FIG. 2 is the two-photon fluorescent imaging of fluorescent probe compound A1 in the tumor cells and non-tumor cells in example 2. Hela cells and HEK293 cells were incubated with 4 μL of A1-DMSO (4.0 μM) for 60 min in 5% CO2 at 37° C. The representative areas were selected and imaged with oil-immersion objective lens (100×). The resulting images are representative of replicate experiments (n=3). The images were recorded with the emission in the range of 500-550 nm. FIG. 2 (a) is confocal image of Hela cell, FIG. 2 (b) is confocal image of HEK293 cell.
(§2) FIG. 10 is two-photon fluorescent imaging of fluorescent probe compound A2 in the tumor cells and non-tumor cells in example 14. […] The images of FIG. 10 (a1) and (b1) were recorded with the emission in the range of 500-550 nm. The images of FIG. 10 (a2) and (b2) were recorded with the emission in the range of 570-650 nm.
(§3) Compound A1 was used, which was synthesized in the example 1. […] The fluorescence imaging was obtained with a two-photon spectral confocal multiphoton microscope. […] The images were recorded with the emission in the range of 500-550 nm.
(§4) Compound A5 was used, which was synthesized in the example 13. […] The fluorescence imaging was obtained with a two-photon spectral confocal multiphoton microscope. […] The images of FIG. 10(a1) and FIG. 10(b1) were recorded with the emission in the range of 500-550 nm. […]

HeLa cells = test: Two-photon fluorescence labeling of cancer cells; assay type: cell-based; details: 4 μL probe-DMSO solution (4 μM), 60 min, 5% CO2, 37° C., PBS wash
Protocol: as §1, §2, §3, §4

[1] = system: non-tumor tissue sections of mice' lungs; test: Two-photon fluorescence labeling of non-tumor tissue sections; details: sections soaked in probe PBS solution (10 μM), 30 min
Protocol: (§5) FIG. 8 is the two-photon fluorescent imaging of fluorescent probe compound A4 for the tumor tissues and non-tumor tissues of mice' lungs in example 11. The sections of tumor tissues and non-tumor tissues of mice' lungs were incubated with 4 μL of A4 (10.0 μM). The representative areas were selected and imaged with oil-immersion objective lens (100×). The resulting images are representative of replicate experiments (n=3). FIG. 8 (a1) and (a2) are the confocal images of tumor tissue sections of mice' lungs after adding probe A4, FIG. 8 (b1) and (b2) are the confocal images of non-tumor tissue sections of mice' lungs after adding probe A4. The images of FIG. 8 (a1) and (b1) were recorded with the emission in the range of 500-550 nm. The images of FIG. 8 (a2) and (b2) were recorded with the emission in the range of 570-650 nm.
(§6) FIG. 11 is two-photon fluorescent imaging of fluorescent probe compound A5 for the tumor tissues and non-tumor tissues of mice' lungs in example 15. The sections of tumor tissues and non-tumor tissues of mice' lungs were incubated with 4 μL of […] (10.0 μM). The representative areas were selected and imaged with oil-immersion objective lens (100×). […] The images of FIG. 11 (a1) and (b1) were recorded with the emission in the range of 500-550 nm. The images of FIG. 11 (a2) and (b2) were recorded with the emission in the range of 570-650 nm.
(§7) Tumor tissue sections and non-tumor tissues sections of mice' lungs were soaked in the compound A2 PBS solution (10 μM), respectively. After 30 min, take out the section, mounting, safekeeping, the fluorescence images were obtained by two-photon spectral confocal multiphoton microscope. […] The images were recorded with the emission in the range of 500-550 nm.
as §7, with “A4” for “A2”, “nm. […]” for “nm.”

[2] = Water solubility experiment (absorbance vs concentration at maximum absorption wavelength)
Excerpt: (§8) The absorbance of different concentrations of compound A2 solution at maximum absorption wavelength was detected. The results are representative value from replicate experiments (n=3).
(§9) The absorbance of different concentrations of compound A4 solution at maximum absorption wavelength was detected. The results are representative value from replicate experiments (n=3).
(§10) The experiment instrument is Agilent 8453 U-V spectrophotometer.

[3] = system: tumor tissue sections of mice' lungs; test: Two-photon fluorescence labeling of tumor tissue sections; details: sections soaked in probe PBS solution (10 μM), 30 min
Protocol: as §5, §6, §7
as §7, with “A4” for “A2”, “nm. […]” for “nm.”

physchem = details: water
Excerpt: as §8, §9, §10

SMILES: COc1ccc2c(c1)c(CC(=O)NCCCCCCNc1ccc3c4c(cccc14)C(=O)N(C)C3=O)c(C)n2C(=O)c1ccc(Cl)cc1 [Compound A1]
fluorescence signal in HEK 293 cells (two-photon confocal imaging) (HEK 293 cells): no any fluorescence signal
fluorescence signal in HeLa cells (two-photon confocal imaging) (HeLa cells): strong fluorescence signals

solubility [2]: 5 µM (≈ 3.62 µg/mL)
SMILES: COc1ccc2c(c1)c(CC(=O)NCCCCCCNc1ccc3c4c1cccc4c(=O)n1c4ccccc4nc31)c(C)n2C(=O)c1ccc(Cl)cc1 [Compound A2]
fluorescence signal in non-tumor tissue sections of mice' lungs (two-photon confocal imaging) [1]: no any fluorescence signals
fluorescence signal in tumor tissue sections of mice' lungs (two-photon confocal imaging) [3]: strong fluorescence signals

SMILES: COc1ccc2c(c1)c(CC(=O)NCCCCCCNc1ccc3c4c(cccc14)-c1nc4ccccc4nc1-3)c(C)n2C(=O)c1ccc(Cl)cc1 [Compound A4]
fluorescence signal in non-tumor tissue sections of mice' lungs (two-photon confocal imaging) [1]: no any fluorescence signals
solubility (physchem): 24 µM (≈ 17 µg/mL)
fluorescence signal in tumor tissue sections of mice' lungs (two-photon confocal imaging) [3]: strong fluorescence signals

SMILES: COc1ccc2c(c1)c(CC(=O)NCCCCCCNc1ccc3c4c(cccc14)-c1nc4ccc([N+](=O)[O-])cc4nc1-3)c(C)n2C(=O)c1ccc(Cl)cc1 [Compound A5]
fluorescence signal in non-tumor tissue sections of mice' lungs (two-photon confocal imaging) [1]: no any fluorescence signals
fluorescence signal in HEK 293 cells (two-photon confocal imaging) (HEK 293 cells): no any fluorescence signal
fluorescence signal in HeLa cells (two-photon confocal imaging) (HeLa cells): strong fluorescence signals
fluorescence signal in tumor tissue sections of mice' lungs (two-photon confocal imaging) [3]: strong fluorescence signals
